Read-outs that look alike come from different tables or passages of the source.
Legend:
BRD1 = target: T1, BRD1 (Homo sapiens, UniProt O95696); assay: BROMOscan ligand-binding assay
T1 sequence (O95696 562-666 limits assumed): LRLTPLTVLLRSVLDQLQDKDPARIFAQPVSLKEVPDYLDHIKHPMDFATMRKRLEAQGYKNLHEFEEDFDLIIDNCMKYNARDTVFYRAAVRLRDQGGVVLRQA
Excerpt: (§1) BROMOscan is a binding assay based on the well-known KINOMEscan technology. This assay measures the binding of a DNA-tagged bromodomain to an immobilized BRD ligand. If an inhibitor is present, it will compete with the bromodomain binding to the immobilized ligand, resulting in reduction of a quantitative PCR (qPCR) signal in a dose-dependent manner.

BAZ2B = target: T2, BAZ2B (Homo sapiens, UniProt Q9UIF8); assay: BROMOscan ligand-binding assay
T2 sequence (Q9UIF8 2060-2164 limits assumed): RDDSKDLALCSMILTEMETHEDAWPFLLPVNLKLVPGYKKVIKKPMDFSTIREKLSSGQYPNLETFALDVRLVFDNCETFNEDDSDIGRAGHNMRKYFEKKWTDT
Excerpt: as §1

BRD9 = target: T3, BRD9 (Homo sapiens, UniProt Q9H8M2); assay: BROMOscan ligand-binding assay
T3 sequence (Q9H8M2 136-240 limits assumed): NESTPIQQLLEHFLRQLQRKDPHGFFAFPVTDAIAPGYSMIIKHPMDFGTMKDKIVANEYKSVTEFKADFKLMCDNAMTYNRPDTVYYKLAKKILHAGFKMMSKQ
Excerpt: as §1

BRDT(2) = BRDT(2) (Homo sapiens, UniProt Q58F21); assay: BROMOscan ligand-binding assay
Excerpt: as §1

BRPF3 = target: T4, BRPF3 (Homo sapiens, UniProt Q9ULD4); assay: BROMOscan ligand-binding assay
T4 sequence (Q9ULD4 589-693 limits assumed): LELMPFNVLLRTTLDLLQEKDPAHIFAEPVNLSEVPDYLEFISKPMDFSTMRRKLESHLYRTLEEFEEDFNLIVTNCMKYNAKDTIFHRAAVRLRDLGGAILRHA
Excerpt: as §1

ATAD2A = target: T5, ATAD2A (Homo sapiens, UniProt Q6PL18); assay: BROMOscan ligand-binding assay
T5 sequence (Q6PL18 980-1092 limits assumed): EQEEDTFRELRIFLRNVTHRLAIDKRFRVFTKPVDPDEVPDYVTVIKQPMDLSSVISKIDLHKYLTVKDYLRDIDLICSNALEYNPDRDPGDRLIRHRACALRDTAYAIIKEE
Excerpt: as §1

CREBBP = CREBBP (Homo sapiens, UniProt Q92793); assay: BROMOscan ligand-binding assay
Excerpt: as §1

BRDT(1) = BRDT(1) (Homo sapiens, UniProt Q58F21); assay: BROMOscan ligand-binding assay
Excerpt: as §1

BRD7 = target: T6, BRD7 (Homo sapiens, UniProt Q9NPI1); assay: BROMOscan ligand-binding assay; settings: KD, BROMOscan Gene Symbol BRD7
T6 sequence (Q9NPI1 131-235 limits assumed): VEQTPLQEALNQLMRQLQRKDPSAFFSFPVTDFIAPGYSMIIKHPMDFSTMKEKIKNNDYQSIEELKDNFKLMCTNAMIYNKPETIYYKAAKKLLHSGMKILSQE
Excerpt: as §1

TRIM24 = target: T7, TRIM24 (Homo sapiens, UniProt O15164); assay: BROMOscan ligand-binding assay
T7 sequence (O15164 899-1004 limits assumed): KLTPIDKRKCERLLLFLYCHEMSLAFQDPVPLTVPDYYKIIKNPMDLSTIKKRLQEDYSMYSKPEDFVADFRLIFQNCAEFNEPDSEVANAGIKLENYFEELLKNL
Excerpt: as §1

BRDT(1,2) = BRDT(1,2) (Homo sapiens, UniProt Q58F21); assay: BROMOscan ligand-binding assay
Excerpt: as §1

BRD8(2) = BRD8(2) (Homo sapiens, UniProt Q9H0E9); assay: BROMOscan ligand-binding assay
Excerpt: as §1

HAT1 = target: T8, HAT1 (Homo sapiens, UniProt O14929); assay: Histone acetyltransferase (HAT) activity assay; format: biochemical;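 further: HAT selectivity screen of BRD probe compounds, enzyme activity in % measured with compound at 1 µM and 10 µM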
T8 sequence (O14929 1-419): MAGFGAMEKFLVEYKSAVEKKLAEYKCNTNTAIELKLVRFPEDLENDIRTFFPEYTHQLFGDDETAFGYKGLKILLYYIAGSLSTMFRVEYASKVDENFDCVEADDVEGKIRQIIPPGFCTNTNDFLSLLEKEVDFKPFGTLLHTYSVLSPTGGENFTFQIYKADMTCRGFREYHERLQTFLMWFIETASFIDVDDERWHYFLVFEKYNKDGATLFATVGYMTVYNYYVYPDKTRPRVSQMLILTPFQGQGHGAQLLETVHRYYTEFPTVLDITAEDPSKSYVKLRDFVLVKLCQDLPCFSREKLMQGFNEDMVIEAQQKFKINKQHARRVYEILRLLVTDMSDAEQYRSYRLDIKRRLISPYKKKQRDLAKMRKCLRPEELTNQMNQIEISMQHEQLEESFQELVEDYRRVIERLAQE

GCN5L2 = GCN5L2 (Homo sapiens, UniProt Q92830); assay: Histone acetyltransferase (HAT) activity assay; format: biochemical;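 further: selectivity screen of BRD probe compounds across a panel of histone acetyltransferases, HAT activity in % with compound at 1 or 10 µM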
MYST3 = MYST3 (Homo sapiens, UniProt Q92794); assay: Histone acetyltransferase (HAT) activity assay; format: biochemical;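 further: selectivity screen of bromodomain probe compounds across a panel of histone acetyltransferases, read out as enzyme activity in %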
MYST1 = target: T9, MYST1 (Homo sapiens, UniProt Q9H7Z6); assay: Histone acetyltransferase (HAT) activity assay; format: biochemical;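 further: selectivity screen across a panel of histone acetyltransferases, with compounds tested at 1 and 10 µM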
T9 sequence (Q9H7Z6 1-458): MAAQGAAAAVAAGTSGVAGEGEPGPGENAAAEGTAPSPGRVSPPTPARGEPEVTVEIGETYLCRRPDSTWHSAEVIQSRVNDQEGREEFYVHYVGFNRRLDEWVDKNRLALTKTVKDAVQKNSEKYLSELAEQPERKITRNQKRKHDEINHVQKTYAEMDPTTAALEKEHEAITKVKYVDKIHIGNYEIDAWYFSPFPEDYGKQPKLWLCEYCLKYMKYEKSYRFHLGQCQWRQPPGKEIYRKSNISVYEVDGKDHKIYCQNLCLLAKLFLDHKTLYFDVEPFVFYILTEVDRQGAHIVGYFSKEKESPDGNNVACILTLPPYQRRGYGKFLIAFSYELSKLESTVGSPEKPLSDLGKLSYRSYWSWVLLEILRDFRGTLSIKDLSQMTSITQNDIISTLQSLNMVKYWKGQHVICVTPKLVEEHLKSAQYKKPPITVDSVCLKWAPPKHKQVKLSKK

EP300 = EP300 (Homo sapiens, UniProt Q09472); assay: Histone acetyltransferase (HAT) activity assay; format: biochemical;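 further: selectivity screen of bromodomain probe compounds against histone acetyltransferases, with enzyme activity given in percent for compounds tested at 1 and 10 µM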
[1] = read-out: KD (BROMOscan), sheet prints no unit (nM)
[2] = KD (BROMOscan), sheet prints no unit (nM)

BRD8(2), sequence (Q9H0E9 1099-1207 limits assumed): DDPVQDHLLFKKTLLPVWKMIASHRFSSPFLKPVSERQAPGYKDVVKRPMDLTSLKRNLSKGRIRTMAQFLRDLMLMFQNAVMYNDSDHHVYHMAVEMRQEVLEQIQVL
CREBBP, sequence (Q92793 1085-1192 limits assumed): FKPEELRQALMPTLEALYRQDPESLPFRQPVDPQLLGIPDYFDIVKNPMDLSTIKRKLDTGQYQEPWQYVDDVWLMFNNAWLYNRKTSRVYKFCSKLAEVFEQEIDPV
EP300, sequence (Q09472 whole entry, species assumed): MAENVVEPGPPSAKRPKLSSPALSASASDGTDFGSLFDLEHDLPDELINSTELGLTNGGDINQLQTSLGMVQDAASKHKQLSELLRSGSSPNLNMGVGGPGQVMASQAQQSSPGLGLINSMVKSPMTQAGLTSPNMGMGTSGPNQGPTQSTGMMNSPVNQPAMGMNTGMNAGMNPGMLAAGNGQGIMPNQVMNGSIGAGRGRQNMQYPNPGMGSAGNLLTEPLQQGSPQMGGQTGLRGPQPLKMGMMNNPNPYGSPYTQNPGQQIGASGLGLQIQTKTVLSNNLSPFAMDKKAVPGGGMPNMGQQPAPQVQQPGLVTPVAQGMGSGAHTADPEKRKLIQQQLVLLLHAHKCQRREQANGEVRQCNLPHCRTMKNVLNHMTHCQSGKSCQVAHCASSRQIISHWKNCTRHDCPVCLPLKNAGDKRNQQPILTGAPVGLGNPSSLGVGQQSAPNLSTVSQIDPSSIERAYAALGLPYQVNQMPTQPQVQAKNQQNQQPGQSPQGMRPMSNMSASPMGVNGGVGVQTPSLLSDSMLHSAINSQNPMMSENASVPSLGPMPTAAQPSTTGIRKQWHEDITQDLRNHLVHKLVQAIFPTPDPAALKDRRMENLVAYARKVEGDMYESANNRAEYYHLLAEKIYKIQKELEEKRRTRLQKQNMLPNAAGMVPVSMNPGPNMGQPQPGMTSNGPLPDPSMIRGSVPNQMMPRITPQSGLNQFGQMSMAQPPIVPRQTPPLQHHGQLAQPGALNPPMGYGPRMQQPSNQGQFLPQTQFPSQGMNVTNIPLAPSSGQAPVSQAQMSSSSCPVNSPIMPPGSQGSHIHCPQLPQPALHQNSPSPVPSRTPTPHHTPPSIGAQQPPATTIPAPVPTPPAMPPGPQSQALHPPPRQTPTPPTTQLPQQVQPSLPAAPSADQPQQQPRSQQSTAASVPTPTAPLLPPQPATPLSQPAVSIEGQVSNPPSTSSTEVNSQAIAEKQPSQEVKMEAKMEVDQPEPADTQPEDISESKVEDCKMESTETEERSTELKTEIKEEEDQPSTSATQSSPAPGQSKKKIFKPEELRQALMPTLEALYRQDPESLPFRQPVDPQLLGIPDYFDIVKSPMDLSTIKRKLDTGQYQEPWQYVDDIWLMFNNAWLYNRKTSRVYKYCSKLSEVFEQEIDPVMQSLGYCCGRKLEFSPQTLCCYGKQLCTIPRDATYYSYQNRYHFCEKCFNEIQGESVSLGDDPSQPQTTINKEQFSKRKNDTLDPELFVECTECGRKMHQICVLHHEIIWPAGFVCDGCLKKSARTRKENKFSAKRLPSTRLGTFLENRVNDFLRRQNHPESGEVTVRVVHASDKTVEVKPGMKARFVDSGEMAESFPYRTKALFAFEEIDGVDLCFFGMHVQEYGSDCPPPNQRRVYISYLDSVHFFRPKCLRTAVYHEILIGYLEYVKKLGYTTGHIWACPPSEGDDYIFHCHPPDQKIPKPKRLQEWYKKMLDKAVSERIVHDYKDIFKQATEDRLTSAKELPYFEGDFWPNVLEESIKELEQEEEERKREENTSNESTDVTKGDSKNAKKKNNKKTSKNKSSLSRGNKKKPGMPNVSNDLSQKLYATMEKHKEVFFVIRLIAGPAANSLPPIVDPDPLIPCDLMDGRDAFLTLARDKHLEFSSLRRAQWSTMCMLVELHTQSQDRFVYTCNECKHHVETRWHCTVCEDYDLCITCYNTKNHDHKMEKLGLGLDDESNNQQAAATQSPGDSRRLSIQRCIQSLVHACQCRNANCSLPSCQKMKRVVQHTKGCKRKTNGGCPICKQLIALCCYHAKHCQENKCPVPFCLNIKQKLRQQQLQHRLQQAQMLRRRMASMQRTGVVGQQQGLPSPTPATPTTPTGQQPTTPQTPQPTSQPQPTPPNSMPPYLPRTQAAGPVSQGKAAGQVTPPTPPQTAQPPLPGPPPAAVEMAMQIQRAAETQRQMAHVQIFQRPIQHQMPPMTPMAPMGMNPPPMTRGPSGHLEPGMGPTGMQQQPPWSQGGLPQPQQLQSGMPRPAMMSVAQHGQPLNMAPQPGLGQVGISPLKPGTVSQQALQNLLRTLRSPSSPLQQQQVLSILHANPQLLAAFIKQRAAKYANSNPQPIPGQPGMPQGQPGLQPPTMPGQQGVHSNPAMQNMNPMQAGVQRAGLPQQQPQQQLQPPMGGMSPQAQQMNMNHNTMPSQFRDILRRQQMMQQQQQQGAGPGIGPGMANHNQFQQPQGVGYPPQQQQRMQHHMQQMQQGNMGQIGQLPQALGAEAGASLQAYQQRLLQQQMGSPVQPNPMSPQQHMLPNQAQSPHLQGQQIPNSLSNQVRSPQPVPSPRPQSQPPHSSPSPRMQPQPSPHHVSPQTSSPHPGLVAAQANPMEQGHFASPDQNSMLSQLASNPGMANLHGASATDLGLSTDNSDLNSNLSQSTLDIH
MYST3, sequence (Q92794 whole entry, species assumed): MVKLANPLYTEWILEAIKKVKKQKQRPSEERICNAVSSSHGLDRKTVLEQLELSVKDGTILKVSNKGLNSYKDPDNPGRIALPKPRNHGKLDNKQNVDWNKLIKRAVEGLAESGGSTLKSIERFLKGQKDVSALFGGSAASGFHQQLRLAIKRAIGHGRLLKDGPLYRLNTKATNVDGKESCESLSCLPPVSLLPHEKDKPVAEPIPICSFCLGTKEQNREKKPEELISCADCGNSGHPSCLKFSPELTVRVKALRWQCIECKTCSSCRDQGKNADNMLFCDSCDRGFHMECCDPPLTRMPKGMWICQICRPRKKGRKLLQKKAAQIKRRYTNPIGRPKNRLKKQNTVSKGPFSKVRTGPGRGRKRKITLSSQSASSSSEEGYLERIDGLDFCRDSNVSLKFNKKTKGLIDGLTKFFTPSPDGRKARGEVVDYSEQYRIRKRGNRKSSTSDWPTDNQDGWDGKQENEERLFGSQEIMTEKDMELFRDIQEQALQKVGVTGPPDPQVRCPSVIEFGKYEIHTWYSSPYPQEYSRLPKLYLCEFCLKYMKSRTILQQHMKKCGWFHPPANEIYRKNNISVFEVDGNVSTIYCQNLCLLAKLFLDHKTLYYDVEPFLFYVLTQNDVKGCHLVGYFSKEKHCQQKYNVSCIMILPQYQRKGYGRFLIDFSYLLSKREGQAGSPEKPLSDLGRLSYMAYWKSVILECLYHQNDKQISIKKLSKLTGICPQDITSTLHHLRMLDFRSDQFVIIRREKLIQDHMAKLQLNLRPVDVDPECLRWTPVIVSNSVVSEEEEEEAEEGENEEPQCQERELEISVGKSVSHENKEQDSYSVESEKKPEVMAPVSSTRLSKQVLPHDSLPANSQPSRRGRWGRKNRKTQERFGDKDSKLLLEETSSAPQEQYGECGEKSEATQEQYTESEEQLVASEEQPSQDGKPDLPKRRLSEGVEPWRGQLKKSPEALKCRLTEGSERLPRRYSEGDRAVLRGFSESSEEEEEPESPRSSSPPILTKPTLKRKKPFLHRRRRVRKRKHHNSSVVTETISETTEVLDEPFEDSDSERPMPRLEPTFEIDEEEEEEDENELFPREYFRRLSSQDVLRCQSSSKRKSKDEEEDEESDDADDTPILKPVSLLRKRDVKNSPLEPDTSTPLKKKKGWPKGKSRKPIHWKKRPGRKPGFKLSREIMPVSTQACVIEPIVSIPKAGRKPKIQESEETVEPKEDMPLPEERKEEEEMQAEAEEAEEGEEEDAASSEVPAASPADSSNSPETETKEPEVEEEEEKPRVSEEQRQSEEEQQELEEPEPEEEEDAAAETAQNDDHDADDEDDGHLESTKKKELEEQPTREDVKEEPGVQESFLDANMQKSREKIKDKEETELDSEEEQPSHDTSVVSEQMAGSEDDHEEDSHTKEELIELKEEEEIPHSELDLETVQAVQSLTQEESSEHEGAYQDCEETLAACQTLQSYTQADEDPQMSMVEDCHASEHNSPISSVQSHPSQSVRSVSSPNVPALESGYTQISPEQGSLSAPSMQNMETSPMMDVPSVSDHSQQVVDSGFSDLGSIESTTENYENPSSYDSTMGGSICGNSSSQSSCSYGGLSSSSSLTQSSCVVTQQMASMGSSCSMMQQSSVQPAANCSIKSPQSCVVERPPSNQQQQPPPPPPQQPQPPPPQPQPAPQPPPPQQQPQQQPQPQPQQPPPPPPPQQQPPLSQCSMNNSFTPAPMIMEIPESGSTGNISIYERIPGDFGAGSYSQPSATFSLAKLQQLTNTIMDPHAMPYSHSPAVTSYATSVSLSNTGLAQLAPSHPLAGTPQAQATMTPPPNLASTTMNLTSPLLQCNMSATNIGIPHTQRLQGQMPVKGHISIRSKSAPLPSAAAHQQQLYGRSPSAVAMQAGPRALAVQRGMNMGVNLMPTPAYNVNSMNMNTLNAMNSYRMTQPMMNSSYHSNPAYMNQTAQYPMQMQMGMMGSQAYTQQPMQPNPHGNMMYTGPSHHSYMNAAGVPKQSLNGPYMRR

## Cc1noc(C)c1-c1ccc2c(c1)nc(CCc1ccccc1)n2CCN1CCOCC1 [CBP30-298]
BRD1; BROMOscan Gene Symbol BRD1
  Kd: 46 µM
BAZ2B; BROMOscan Gene Symbol BAZ2B
  Kd: > 50000 nM
BAZ2B; [1]
  Kd: > 30000 nM
BRD9; BROMOscan Gene Symbol BRD9
  Kd: 12 µM
BRDT(2); BROMOscan Gene Symbol BRDT(2)
  Kd: 6.8 µM
BRPF3; BROMOscan Gene Symbol BRPF3
  Kd: > 50000 nM
BRPF3; [1]
  Kd: > 30000 nM
ATAD2A; BROMOscan Gene Symbol ATAD2A
  Kd: > 150000 nM
ATAD2A; [1]
  Kd: > 30000 nM
CREBBP; BROMOscan Gene Symbol CREBBP
  Kd: 0.14 µM
BRDT(1); BROMOscan Gene Symbol BRDT(1)
  Kd: 1.8 µM

## CCCOc1ccn2c(C(C)=O)cc(-c3ccccc3S(C)(=O)=O)c2c1 [GSK2801]
BRD1
  Kd: 60 µM
BRD7
  Kd: 22 µM
BRD9; KD, BROMOscan Gene Symbol BRD9
  Kd: 0.12 µM
BRDT(2); KD, BROMOscan Gene Symbol BRDT(2)
  Kd: 67 µM
TRIM24; KD, BROMOscan Gene Symbol TRIM24(Bromo.)
  Kd: 24 µM
BRDT(1,2); KD, BROMOscan Gene Symbol BRDT(1,2)
  Kd: 52 µM
BRD8(2); [2]
  Kd: > 30000 nM
BRD8(2); KD, BROMOscan Gene Symbol BRD8(2)
  Kd: > 100000 nM
BRPF3; KD, BROMOscan Gene Symbol BRPF3
  Kd: 15000 nM
ATAD2A; [2]
  Kd: > 30000 nM
ATAD2A; KD, BROMOscan Gene Symbol ATAD2A
  Kd: > 100000 nM
CREBBP; KD, BROMOscan Gene Symbol CREBBP
  Kd: 21 µM
BRDT(1); KD, BROMOscan Gene Symbol BRDT(1)
  Kd: 30 µM

## Cc1cc(=O)n(C)c2cc(N3C(=O)CC[C@H](NS(=O)(=O)CC(C)C)[C@H]3c3ccc(Cl)cc3)ccc12 [LP-99]
BRD1; BRD1
  Kd: 22 µM
HAT1; 1µM
  HATs Activity (%): 104%
HAT1; 10µM
  HATs Activity (%): 95%
GCN5L2; 1µM
  HATs Activity (%): 92%
GCN5L2; 10µM
  HATs Activity (%): 89%
BAZ2B; BAZ2B
  Kd: > 50000 nM
MYST3; 1µM
  HATs Activity (%): 96%
MYST3; 10µM
  HATs Activity (%): 100%
MYST1; 1µM
  HATs Activity (%): 90%
MYST1; 10µM
  HATs Activity (%): 88%
BRDT(2); BROMOscan, BRDT(2)
  Kd: 33 µM
TRIM24; BROMOscan, TRIM24(Bromo.)
  Kd: > 50 µM
EP300; 1µM
  HATs Activity (%): 99%
EP300; 10µM
  HATs Activity (%): 98%
BRDT(1,2); BROMOscan, BRDT(1,2)
  Kd: 21 µM
BRD8(2); BROMOscan, BRD8(2)
  Kd: > 50000 nM
BRPF3; BROMOscan, BRPF3
  Kd: > 50000 nM
ATAD2A; ATAD2A
  Kd: > 50000 nM
CREBBP; BROMOscan, CREBBP
  Kd: > 50 µM
BRDT(1); BROMOscan, BRDT(1)
  Kd: > 50 µM

## COc1cc(C#N)ccc1S(=O)(=O)Nc1ccc2c(c1)cc(C)c(=O)n2C [NI 57]
BRD1; BRD1
  Kd: 0.046 µM
BAZ2B; BAZ2B
  Kd: 9400 nM
BRD9; BRD9
  Kd: 0.16 µM
BRDT(2); BRDT(2)
  Kd: > 50 µM
TRIM24; TRIM24(Bromo.)
  Kd: 1.6 µM
BRDT(1,2); BRDT(1,2)
  Kd: > 50 µM
BRD8(2); BRD8(2)
  Kd: > 50000 nM
ATAD2A; ATAD2A
  Kd: > 50000 nM
CREBBP; CREBBP
  Kd: 13 µM
BRDT(1); BRDT(1)
  Kd: 4.8 µM

— publication PMC6478789, “A chemical toolbox for the study of bromodomains and epigenetic signaling” (Nature Communications, 2019)
